Test results taken from patent US20160002204A1 (Board of Regents, The University of Texas System, priority 2014, published 2016).

Experiments:
[1] = molecular target: T1, GLS1 (purified recombinant human GAC) (Homo sapiens, UniProt O94925); experiment: GLS1 enzymatic activity assay (dual-coupled, Amplex UltraRed/resorufin); format: biochemical
T1 sequence (O94925 55-598 isoform O94925-3 limits assumed): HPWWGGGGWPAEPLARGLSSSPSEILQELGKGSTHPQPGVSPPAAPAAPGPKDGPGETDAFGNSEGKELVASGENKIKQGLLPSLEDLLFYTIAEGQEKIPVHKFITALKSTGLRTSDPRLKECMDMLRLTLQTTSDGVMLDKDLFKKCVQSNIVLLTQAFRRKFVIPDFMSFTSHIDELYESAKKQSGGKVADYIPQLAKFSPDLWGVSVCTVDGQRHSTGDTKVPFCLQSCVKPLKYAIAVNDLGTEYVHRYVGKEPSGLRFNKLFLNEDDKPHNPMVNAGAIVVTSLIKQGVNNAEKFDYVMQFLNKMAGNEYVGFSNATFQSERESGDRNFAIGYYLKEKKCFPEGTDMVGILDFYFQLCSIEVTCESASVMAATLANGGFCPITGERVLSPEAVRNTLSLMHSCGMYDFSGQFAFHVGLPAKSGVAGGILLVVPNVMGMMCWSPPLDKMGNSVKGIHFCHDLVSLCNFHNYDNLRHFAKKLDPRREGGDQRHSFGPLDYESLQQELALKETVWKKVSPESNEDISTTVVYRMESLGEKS
Outline: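 In this coupled fluorometric format, phosphate-activated GAC (2 nM, 50 mM phosphate) is pre-exposed to compound for 10 min before 1 mM glutamine addition. Product is tracked as resorufin (530/590 nm) over time or at 20 min, and potency is derived by logistic fitting.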

A549 cells = experiment: A549 proliferation (viability) assay, Cell Titer Fluor, 72 hours; format: cell-based; settings: Homo sapiens
Outline: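 Compound exposure lasted 72 h (final DMSO 0.5% v/v) on A549 cells plated at 1000 cells/well one day earlier. Cell Titer Fluor added, 30 min at 37 °C, fluorescence read; EC50 derived by four-parameter logistic curve fitting.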

| SMILES | IC50 [1] [nM] | EC50 (A549 cells) [nM] |
| --- | --- | --- |
| CO[C@@H](C(=O)Nc1ccn(CCC(F)Cn2cc(C(=O)NCc3cccc(OC(F)(F)F)c3)nn2)c(=O)c1F)c1ccccc1 (stereo partly drawn) [Example 284, 1-(2-fluoro-4-{3-fluoro-4-[(2R)-2-methoxy-2-phenylacetamido]-2-oxo-1,2-dihydropyridin-1-yl}butyl)-N-{[3-(trifluoromethoxy)phenyl]methyl}-1H-1,2,3-triazole-4-carboxamide] | < 100 | < 100 |
| CO[C@H](C(=O)Nc1ccn(CCC(F)Cn2cc(C(=O)NCc3cccc(OC(F)(F)F)c3)nn2)c(=O)c1F)c1ccccc1 (stereo partly drawn) [Example 285, 1-(2-fluoro-4-{3-fluoro-4-[(2S)-2-methoxy-2-phenylacetamido]-2-oxo-1,2-dihydropyridin-1-yl}butyl)-N-{[3-(trifluoromethoxy)phenyl]methyl}-1H-1,2,3-triazole-4-carboxamide] | < 100 | < 100 |
| O=C(NCc1cccc(OC(F)(F)F)c1)c1cn(CC(F)CCn2ccc(NC(=O)[C@@H](O)c3ccccc3)c(F)c2=O)nn1 (stereo partly drawn) [Example 286, 1-(2-fluoro-4-{3-fluoro-4-[(2S)-2-hydroxy-2-phenylacetamido]-2-oxo-1,2-dihydropyridin-1-yl}butyl)-N-{[3-(trifluoromethoxy)phenyl]methyl}-1H-1,2,3-triazole-4-carboxamide] | < 100 | < 100 |
| O=C(NCc1cccc(OC(F)(F)F)c1)c1cn(CC(F)CCn2ccc(NC(=O)[C@H](O)c3ccccc3)c(F)c2=O)nn1 (stereo partly drawn) [Example 287, 1-(2-fluoro-4-{3-fluoro-4-[(2R)-2-hydroxy-2-phenylacetamido]-2-oxo-1,2-dihydropyridin-1-yl}butyl)-N-{[3-(trifluoromethoxy)phenyl]methyl}-1H-1,2,3-triazole-4-carboxamide] | < 100 | < 100 |
| O=C(CN1CCCCC1)Nc1ccn(CCC(F)Cn2cc(C(=O)NCc3cccc(OC(F)(F)F)c3)nn2)c(=O)c1F (centres unmarked) [Example 288, 1-(2-fluoro-4-{3-fluoro-2-oxo-4-[2-(piperidin-1-yl)acetamido]-1,2-dihydropyridin-1-yl}butyl)-N-{[3-(trifluoromethoxy)phenyl]methyl}-1H-1,2,3-triazole-4-carboxamide] | < 100 | < 100 |
| CC(C)(C)OC(=O)N1CCC(CC(=O)Nc2ccn(CCC(F)Cn3cc(C(=O)NCc4cccc(OC(F)(F)F)c4)nn3)c(=O)c2F)CC1 (centres unmarked) [Example 289, tert-butyl 4-{[(3-fluoro-1-{3-fluoro-4-[4-({[3-(trifluoro-methoxy)phenyl]methyl}carbamoyl)-1H-1,2,3-triazol-1-yl]butyl}-2-oxo-1,2-dihydropyridin-4-yl)carbamoyl]methyl}piperidine-1-carboxylate] | < 100 | < 100 |
| O=C(CN1CCC(F)(F)CC1)Nc1ccn(CCC(F)Cn2cc(C(=O)NCc3cccc(OC(F)(F)F)c3)nn2)c(=O)c1F (centres unmarked) [Example 290, 1-(4-{4-[2-(4,4-difluoropiperidin-1-yl)acetamido]-3-fluoro-2-oxo-1,2-dihydropyridin-1-yl}-2-fluorobutyl)-N-{[3-(trifluoromethoxy)phenyl]methyl}-1H-1,2,3-triazole-4-carboxamide] | < 100 | < 100 |
| O=C(CN1CCCC(F)C1)Nc1ccn(CCC(F)Cn2cc(C(=O)NCc3cccc(OC(F)(F)F)c3)nn2)c(=O)c1F (centres unmarked) [Example 291, 1-(2-fluoro-4-{3-fluoro-4-[2-(3-fluoropiperidin-1-yl)acetamido]-2-oxo-1,2-dihydropyridin-1-yl}butyl)-N-{[3-(trifluoromethoxy)phenyl]methyl}-1H-1,2,3-triazole-4-carboxamide] | < 100 | < 100 |
| CCOC(=O)N1CCN(CC(=O)Nc2ccn(CCC(F)Cn3cc(C(=O)NCc4cccc(OC(F)(F)F)c4)nn3)c(=O)c2F)CC1 (centres unmarked) [Example 292, ethyl 4-{[(3-fluoro-1-{3-fluoro-4-[4-({[3-(trifluoro-methoxy)phenyl]methyl}carbamoyl)-1H-1,2,3-triazol-1-yl]butyl}-2-oxo-1,2-dihydropyridin-4-yl)carbamoyl]methyl}piperazine-1-carboxylate] | < 100 | < 100 |
| O=C(CN1CCCC1)Nc1ccn(CCC(F)Cn2cc(C(=O)NCc3cccc(OC(F)(F)F)c3)nn2)c(=O)c1F (centres unmarked) [Example 293, 1-(2-fluoro-4-{3-fluoro-2-oxo-4-[2-(pyrrolidin-1-yl)acetamido]-1,2-dihydropyridin-1-yl}butyl)-N-{[3-(trifluoromethoxy)phenyl]methyl}-1H-1,2,3-triazole-4-carboxamide] | < 100 | 100 to 500 |
| CC1(C)CN(CC(=O)Nc2ccn(CCC(F)Cn3cc(C(=O)NCc4cccc(OC(F)(F)F)c4)nn3)c(=O)c2F)CCO1 (centres unmarked) [Example 294, 1-(4-{4-[2-(2,2-dimethylmorpholin-4-yl)acetamido]-3-fluoro-2-oxo-1,2-dihydropyridin-1-yl}-2-fluorobutyl)-N-{[3-(trifluoromethoxy)phenyl]methyl}-1H-1,2,3-triazole-4-carboxamide] | < 100 | < 100 |
| O=C(CN1CCCC(F)(F)C1)Nc1ccn(CCC(F)Cn2cc(C(=O)NCc3cccc(OC(F)(F)F)c3)nn2)c(=O)c1F (centres unmarked) [Example 295, 1-(4-{4-[2-(3,3-difluoropiperidin-1-yl)acetamido]-3-fluoro-2-oxo-1,2-dihydropyridin-1-yl}-2-fluorobutyl)-N-{[3-(trifluoromethoxy)phenyl]methyl}-1H-1,2,3-triazole-4-carboxamide] | < 100 | < 100 |
| CC(C)(C)OC(=O)N1CCN(CC(=O)Nc2ccn(CCC(F)Cn3cc(C(=O)NCc4cccc(OC(F)(F)F)c4)nn3)c(=O)c2F)CC1 (centres unmarked) [Example 296, tert-butyl 4-{[(3-fluoro-1-{3-fluoro-4-[4-({[3-(trifluoro-methoxy)phenyl]methyl}carbamoyl)-1H-1,2,3-triazol-1-yl]butyl}-2-oxo-1,2-dihydropyridin-4-yl)carbamoyl]methyl}piperazine-1-carboxylate] | < 100 | < 100 |

Continued, values first:

| IC50 [1] [nM] | EC50 (A549 cells) [nM] | SMILES |
| --- | --- | --- |
| < 100 | < 100 | CC(C)(C)OC(=O)N1CC2(CN(CC(=O)Nc3ccn(CCC(F)Cn4cc(C(=O)NCc5cccc(OC(F)(F)F)c5)nn4)c(=O)c3F)C2)C1 (centres unmarked) [Example 297, tert-butyl 6-{[(3-fluoro-1-{3-fluoro-4-[4-({[3-(trifluoro-methoxy)phenyl]methyl}carbamoyl)-1H-1,2,3-triazol-1-yl]butyl}-2-oxo-1,2-dihydropyridin-4-yl)carbamoyl]methyl}-2,6-diazaspiro[3.3]heptane-2-carboxylate] |
| 100 to 500 | 500 to 5000 | Cc1ccc(CNC(=O)c2cn(CC(F)CCn3ccc(NC(=O)OC(C)(C)C)c(F)c3=O)nn2)cn1 (centres unmarked) [Example 298, tert-butyl N-{3-fluoro-1-[3-fluoro-4-(4-{[(6-methylpyridin-3-yl)methyl]carbamoyl}-1H-1,2,3-triazol-1-yl)butyl]-2-oxo-1,2-dihydropyridin-4-yl}carbamate] |
| 100 to 500 | 500 to 5000 | O=C(CC1CCNCC1)Nc1ccn(CCC(F)Cn2cc(C(=O)NCc3cccc(OC(F)(F)F)c3)nn2)c(=O)c1F (centres unmarked) [Example 299, 1-(2-fluoro-4-{3-fluoro-2-oxo-4-[2-(piperidin-4-yl)acetamido]-1,2-dihydropyridin-1-yl}butyl)-N-{[3-(trifluoromethoxy)phenyl]methyl}-1H-1,2,3-triazole-4-carboxamide] |
| < 100 | < 100 | CCOC(=O)N1CCC(CC(=O)Nc2ccn(CCC(F)Cn3cc(C(=O)NCc4cccc(OC(F)(F)F)c4)nn3)c(=O)c2F)CC1 (centres unmarked) [Example 300, ethyl 4-{[(3-fluoro-1-{3-fluoro-4-[4-({[3-(trifluoro-methoxy)phenyl]methyl}carbamoyl)-1H-1,2,3-triazol-1-yl]butyl}-2-oxo-1,2-dihydropyridin-4-yl)carbamoyl]methyl}piperidine-1-carboxylate] |
| < 100 | < 100 | O=C(CC1CCN(C(=O)CC(F)(F)F)CC1)Nc1ccn(CCC(F)Cn2cc(C(=O)NCc3cccc(OC(F)(F)F)c3)nn2)c(=O)c1F (centres unmarked) [Example 301, 1-[2-fluoro-4-(3-fluoro-2-oxo-4-{2-[1-(3,3,3-trifluoropropanoyl)piperidin-4-yl]acetamido}-1,2-dihydropyridin-1-yl)butyl]-N-{[3-(trifluoromethoxy)phenyl]methyl}-1H-1,2,3-triazole-4-carboxamide] |
| < 100 | 100 to 500 | CS(=O)(=O)N1CCC(CC(=O)Nc2ccn(CCC(F)Cn3cc(C(=O)NCc4cccc(OC(F)(F)F)c4)nn3)c(=O)c2F)CC1 (centres unmarked) [Example 302, 1-(2-fluoro-4-{3-fluoro-4-[2-(1-methanesulfonylpiperidin-4-yl)acetamido]-2-oxo-1,2-dihydropyridin-1-yl}butyl)-N-{[3-(trifluoromethoxy)phenyl]methyl}-1H-1,2,3-triazole-4-carboxamide] |
